# US11981658B2, “Substituted aminopyridine compounds as EGFR inhibitors” (YUHAN CORPORATION, priority 2021, dated 2024)
# Where a name gives a salt, the structure may show the parent alone. Read-outs that look alike come from different tables or passages of the source.
# What was measured:
# [1] = target: EGFR Del19/C797S (Homo sapiens, UniProt P00533, C797S/DEL746-750); experiment: Biochemical EGFR kinase inhibition assay (Lance Ultra TR-FRET), double mutant del19/C797S
# How it was run: (§1)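 Enzyme reactions lasted 1 hour at room temperature with test compounds between 0.003 and 10 μM, followed by 10 mM EDTA quench.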
# [2] = target: EGFR wildtype (WT) (Homo sapiens, UniProt P00533); experiment: Biochemical EGFR kinase inhibition assay (Lance Ultra TR-FRET), wildtype
# Sequence of EGFR wildtype (WT) (P00533 25-1210): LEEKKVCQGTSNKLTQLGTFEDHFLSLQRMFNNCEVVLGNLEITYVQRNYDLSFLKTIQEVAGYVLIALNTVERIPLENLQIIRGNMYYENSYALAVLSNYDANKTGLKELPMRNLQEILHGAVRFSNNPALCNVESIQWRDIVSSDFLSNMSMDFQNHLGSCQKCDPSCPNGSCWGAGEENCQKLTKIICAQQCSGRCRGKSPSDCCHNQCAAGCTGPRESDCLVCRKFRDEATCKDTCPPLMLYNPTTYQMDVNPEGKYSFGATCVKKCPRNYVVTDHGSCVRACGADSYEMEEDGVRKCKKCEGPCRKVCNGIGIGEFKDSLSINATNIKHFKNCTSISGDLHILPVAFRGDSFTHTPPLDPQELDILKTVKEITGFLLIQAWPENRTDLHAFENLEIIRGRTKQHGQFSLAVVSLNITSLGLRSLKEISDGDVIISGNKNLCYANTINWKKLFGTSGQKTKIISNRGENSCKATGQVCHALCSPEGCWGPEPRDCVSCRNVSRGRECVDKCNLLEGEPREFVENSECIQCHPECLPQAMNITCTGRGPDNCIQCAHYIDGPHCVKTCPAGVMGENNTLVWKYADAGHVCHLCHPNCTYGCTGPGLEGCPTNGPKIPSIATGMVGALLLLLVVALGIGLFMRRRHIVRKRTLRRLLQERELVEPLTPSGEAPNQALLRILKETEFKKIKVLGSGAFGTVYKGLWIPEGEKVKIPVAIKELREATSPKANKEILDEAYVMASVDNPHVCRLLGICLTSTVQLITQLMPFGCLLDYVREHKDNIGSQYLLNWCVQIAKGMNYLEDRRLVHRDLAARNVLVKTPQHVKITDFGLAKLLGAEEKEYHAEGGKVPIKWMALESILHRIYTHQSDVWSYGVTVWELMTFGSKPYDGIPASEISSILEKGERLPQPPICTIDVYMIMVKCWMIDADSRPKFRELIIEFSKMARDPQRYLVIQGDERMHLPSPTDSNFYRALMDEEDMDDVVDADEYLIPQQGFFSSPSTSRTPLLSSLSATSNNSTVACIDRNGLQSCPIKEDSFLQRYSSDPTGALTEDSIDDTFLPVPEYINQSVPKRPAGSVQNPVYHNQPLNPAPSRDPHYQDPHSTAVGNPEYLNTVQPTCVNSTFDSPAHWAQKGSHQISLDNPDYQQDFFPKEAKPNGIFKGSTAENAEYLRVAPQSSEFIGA
# How it was run: as §1
# [3] = target: EGFR L858R/C797S (Homo sapiens, UniProt P00533, C797S/L858R); experiment: Biochemical EGFR kinase inhibition assay (Lance Ultra TR-FRET), double mutant L858R/C797S
# Sequence of EGFR L858R/C797S (P00533 25-1210 C797S/L858R): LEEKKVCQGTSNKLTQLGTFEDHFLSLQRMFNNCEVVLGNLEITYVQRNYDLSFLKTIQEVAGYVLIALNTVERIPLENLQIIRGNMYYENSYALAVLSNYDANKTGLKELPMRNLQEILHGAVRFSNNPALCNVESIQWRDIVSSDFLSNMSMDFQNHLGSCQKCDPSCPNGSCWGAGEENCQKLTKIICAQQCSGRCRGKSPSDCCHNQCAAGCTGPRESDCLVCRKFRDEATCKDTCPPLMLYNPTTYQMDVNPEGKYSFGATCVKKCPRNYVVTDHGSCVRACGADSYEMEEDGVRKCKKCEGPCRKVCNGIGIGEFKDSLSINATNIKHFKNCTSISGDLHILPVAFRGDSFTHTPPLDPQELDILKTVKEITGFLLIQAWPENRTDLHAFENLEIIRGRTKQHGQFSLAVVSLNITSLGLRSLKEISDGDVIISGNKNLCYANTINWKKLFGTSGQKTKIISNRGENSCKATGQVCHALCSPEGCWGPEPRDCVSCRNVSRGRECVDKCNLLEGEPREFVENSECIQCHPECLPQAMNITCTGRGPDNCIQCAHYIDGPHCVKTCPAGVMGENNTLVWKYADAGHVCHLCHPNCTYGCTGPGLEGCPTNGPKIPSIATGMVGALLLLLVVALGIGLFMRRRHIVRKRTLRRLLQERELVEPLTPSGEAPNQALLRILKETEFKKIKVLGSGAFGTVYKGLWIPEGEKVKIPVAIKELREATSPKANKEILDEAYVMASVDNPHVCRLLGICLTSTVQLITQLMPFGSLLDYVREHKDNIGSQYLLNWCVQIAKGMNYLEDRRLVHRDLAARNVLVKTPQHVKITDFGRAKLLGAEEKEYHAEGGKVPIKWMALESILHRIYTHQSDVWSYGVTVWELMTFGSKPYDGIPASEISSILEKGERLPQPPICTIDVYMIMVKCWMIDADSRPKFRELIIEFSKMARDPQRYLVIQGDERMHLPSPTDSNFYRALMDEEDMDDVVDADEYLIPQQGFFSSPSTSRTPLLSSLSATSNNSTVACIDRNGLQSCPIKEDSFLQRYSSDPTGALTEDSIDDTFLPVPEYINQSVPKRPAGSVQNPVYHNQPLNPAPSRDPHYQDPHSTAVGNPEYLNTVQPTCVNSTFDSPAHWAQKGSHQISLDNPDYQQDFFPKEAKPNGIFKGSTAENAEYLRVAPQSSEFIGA
# How it was run: as §1
# [4] = target: EGFR Del19/T790M/C797S (Homo sapiens, UniProt P00533, C797S/DEL746-750/T790M); experiment: Biochemical EGFR kinase inhibition assay (Lance Ultra TR-FRET), triple mutant del19/T790M/C797S
# How it was run: as §1
# [5] = target: EGFR L858R/T790M/C797S (Homo sapiens, UniProt P00533, C797S/L858R/T790M); experiment: Biochemical EGFR kinase inhibition assay (Lance Ultra TR-FRET), triple mutant L858R/T790M/C797S
# Sequence of EGFR L858R/T790M/C797S (P00533 25-1210 T790M/C797S/L858R): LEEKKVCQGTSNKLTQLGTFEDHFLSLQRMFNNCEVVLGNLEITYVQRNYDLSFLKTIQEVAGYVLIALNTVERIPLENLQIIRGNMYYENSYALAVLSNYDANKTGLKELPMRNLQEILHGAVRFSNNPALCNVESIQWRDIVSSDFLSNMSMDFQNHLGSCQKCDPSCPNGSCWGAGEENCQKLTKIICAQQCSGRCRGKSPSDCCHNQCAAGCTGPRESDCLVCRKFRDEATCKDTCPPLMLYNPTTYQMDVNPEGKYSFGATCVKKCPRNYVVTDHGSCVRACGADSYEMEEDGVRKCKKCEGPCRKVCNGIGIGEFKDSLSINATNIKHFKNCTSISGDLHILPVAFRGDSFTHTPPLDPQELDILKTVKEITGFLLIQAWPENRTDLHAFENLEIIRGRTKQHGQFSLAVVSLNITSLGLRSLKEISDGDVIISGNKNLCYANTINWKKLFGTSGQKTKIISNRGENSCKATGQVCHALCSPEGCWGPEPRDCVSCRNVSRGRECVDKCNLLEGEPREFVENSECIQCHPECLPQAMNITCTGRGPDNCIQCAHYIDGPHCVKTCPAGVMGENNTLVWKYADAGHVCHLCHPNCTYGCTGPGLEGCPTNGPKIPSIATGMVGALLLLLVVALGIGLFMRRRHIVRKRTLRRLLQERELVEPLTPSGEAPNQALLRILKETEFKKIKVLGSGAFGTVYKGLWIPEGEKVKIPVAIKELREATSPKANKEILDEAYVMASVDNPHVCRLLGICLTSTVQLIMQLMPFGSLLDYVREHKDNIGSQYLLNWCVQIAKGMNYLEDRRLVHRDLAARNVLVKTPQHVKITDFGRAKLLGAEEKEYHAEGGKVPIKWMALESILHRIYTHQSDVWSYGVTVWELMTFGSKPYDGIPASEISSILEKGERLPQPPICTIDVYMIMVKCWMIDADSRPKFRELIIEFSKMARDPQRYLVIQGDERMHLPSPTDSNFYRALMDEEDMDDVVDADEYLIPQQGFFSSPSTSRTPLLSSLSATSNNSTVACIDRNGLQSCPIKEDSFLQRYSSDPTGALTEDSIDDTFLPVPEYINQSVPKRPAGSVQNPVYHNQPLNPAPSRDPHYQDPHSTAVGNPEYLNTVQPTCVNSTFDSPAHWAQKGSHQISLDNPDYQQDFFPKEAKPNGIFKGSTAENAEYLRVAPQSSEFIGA
# How it was run: as §1
# [6] = ATP at Km, read-out: IC50 Del19/C797S (nM), Km ATP
# [7] = IC50 Del19/C797S (nM), 100 μM ATP
# [8] = ATP at Km, read-out: IC50 WT (nM), Km ATP
# [9] = ATP at Km, read-out: IC50 L858R/C797S (nM), Km ATP
# [10] = IC50 L858R/C797S (nM), 100 μM ATP
# [11] = ATP at Km, read-out: IC50 Del19/T790M/C797S (nM), Km ATP
# [12] = IC50 Del19/T790M/C797S (nM), 100 μM ATP
# [13] = ATP at Km, read-out: IC50 L858R/T790M/C797S (nM), Km ATP
# [14] = IC50 L858R/T790M/C797S (nM), 100 μM ATP
# [15] = Km ATP, read-out: IC50 Del19/C797S (nM), Km ATP
# [16] = Km ATP, read-out: IC50 WT (nM), Km ATP
# [17] = Km ATP, read-out: IC50 L858R/C797S (nM), Km ATP
# [18] = Km ATP, read-out: IC50 Del19/T790M/C797S (nM), Km ATP
# [19] = Km ATP, read-out: IC50 L858R/T790M/C797S (nM), Km ATP
# [20] = Km ATP, read-out: IC50 Del19/C797S (nM) Km ATP
# [21] = Km ATP, read-out: IC50 WT (nM) Km ATP
# [22] = Km ATP, read-out: IC50 L858R/C797S (nM) Km ATP
# [23] = Km ATP, read-out: IC50 Del19/T790M/C797S (nM) Km ATP
# [24] = Km ATP, read-out: IC50 L858R/T790M/C797S (nM) Km ATP
# Sequence of EGFR Del19/C797S (P00533 with tags, fused parts or gaps DEL746-750/C797S): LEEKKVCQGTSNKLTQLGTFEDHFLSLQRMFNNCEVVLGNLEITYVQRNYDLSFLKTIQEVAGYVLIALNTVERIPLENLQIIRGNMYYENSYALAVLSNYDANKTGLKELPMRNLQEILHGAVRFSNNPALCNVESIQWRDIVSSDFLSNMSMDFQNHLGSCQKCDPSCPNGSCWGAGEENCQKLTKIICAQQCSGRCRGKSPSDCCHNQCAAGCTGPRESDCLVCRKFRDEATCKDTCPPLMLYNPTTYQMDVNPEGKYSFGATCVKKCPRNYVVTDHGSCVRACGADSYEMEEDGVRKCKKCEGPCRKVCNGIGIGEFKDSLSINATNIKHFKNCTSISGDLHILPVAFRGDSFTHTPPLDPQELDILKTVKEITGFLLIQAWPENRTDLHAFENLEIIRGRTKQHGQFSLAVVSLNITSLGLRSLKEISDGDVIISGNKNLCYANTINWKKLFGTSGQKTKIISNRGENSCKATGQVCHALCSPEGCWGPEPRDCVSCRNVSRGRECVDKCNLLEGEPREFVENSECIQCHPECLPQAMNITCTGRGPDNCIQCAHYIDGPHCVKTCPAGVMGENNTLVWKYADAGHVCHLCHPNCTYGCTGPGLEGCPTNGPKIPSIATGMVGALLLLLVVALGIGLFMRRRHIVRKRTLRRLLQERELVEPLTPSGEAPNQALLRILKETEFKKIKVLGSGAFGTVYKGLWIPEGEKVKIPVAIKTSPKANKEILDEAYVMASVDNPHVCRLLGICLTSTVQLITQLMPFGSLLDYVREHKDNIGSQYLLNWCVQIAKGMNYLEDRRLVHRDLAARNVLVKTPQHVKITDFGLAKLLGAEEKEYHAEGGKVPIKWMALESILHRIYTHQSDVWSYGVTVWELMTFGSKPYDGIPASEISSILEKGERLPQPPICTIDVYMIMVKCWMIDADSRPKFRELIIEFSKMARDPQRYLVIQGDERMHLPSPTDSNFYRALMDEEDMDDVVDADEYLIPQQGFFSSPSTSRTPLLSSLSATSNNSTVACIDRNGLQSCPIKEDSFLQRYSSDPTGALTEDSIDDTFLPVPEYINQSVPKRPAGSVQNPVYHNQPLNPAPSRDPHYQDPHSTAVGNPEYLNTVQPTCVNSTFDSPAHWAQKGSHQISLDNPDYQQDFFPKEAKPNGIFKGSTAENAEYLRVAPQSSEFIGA
SMILES,"IC50 [1, 6]","IC50 [1, 7]","IC50 [2, 8]","IC50 ([2]; IC50 WT (nM), 100 μM ATP)","IC50 [3, 9]","IC50 [3, 10]","IC50 [4, 11]","IC50 [4, 12]","IC50 [5, 13]","IC50 [5, 14]","IC50 [1, 15]","IC50 [2, 16]","IC50 [3, 17]","IC50 [4, 18]","IC50 [5, 19]","IC50 [1, 20]","IC50 [2, 21]","IC50 [3, 22]","IC50 [4, 23]","IC50 [5, 24]"
"CC1(CO)CCN(c2cc(Nc3ccnc(-c4cnn(S(=O)(=O)C5CC5)c4)n3)ncc2C#CC2CCCCC2)CC1 [Example 252, (1-(5-(Cyclohexylethynyl)-2-((2-(1-(cyclopropylsulfonyl)-1H-pyrazol-4-yl)pyrimidin-4-yl)amino)pyridin-4-yl)-4-methylpiperidin-4-yl)methanol]",35.9 nM,39.9 nM,235 nM,> 10000 nM,100 nM,2080 nM,8.5 nM,7.9 nM,4.3 nM,15.9 nM,,,,,,,,,,
"O=S(=O)(C1CC1)n1cc(-c2nccc(Nc3cc(N4CCCC(O)C4)c(C#Cc4ccc(N5CCOCC5)nc4)cn3)n2)cn1 (centres unmarked) [Example 227, 1-(2-((2-(1-(Cyclopropylsulfonyl)-1H-pyrazol-4-yl)pyrimidin-4-yl)amino)-5-((6-morpholinopyridin-3-yl)ethynyl)pyridin-4-yl)piperidin-3-ol]",,94.7 nM,,> 10000 nM,,294 nM,,4.6 nM,,18.3 nM,,,,,,,,,,
"O=S(=O)(C1CC1)N1CCC(C#Cc2cnc(Nc3ccnc(-c4cnn(S(=O)(=O)C5CC5)c4)n3)cc2NC2CCC(CO)CC2)C1 (centres unmarked) [Example 393, ((1s,4s)-4-((2-((2-(1-(Cyclopropylsulfonyl)-1H-pyrazol-4-yl)pyrimidin-4-yl)amino)-5-((1-(cyclopropylsulfonyl)pyrrolidin-3-yl)ethynyl)pyridin-4-yl)amino)cyclohexyl)methanol]",,7.9 nM,,> 10000 nM,,50 nM,,0.6 nM,,1.2 nM,7.3 nM,21.3 nM,3.4 nM,0.5 nM,0.4 nM,,,,,
"CC(C)Nc1cc(Nc2ccnc(-c3cnn(S(=O)(=O)C4CC4)c3)n2)ncc1C#Cc1cnn(CCF)c1 [Example 20, N^2-(2-(1-(Cyclopropylsulfonyl)-1H-pyrazol-4-yl)pyrimidin-4-yl)-5-((1-(2-fluoroethyl)-1H-pyrazol-4-yl)ethynyl)-N^4-isopropylpyridine-2,4-diamine]",,61.5 nM,,> 10000 nM,,,,2.4 nM,,1.6 nM,,,,,,23.1 nM,517 nM,20.4 nM,1.2 nM,1.3 nM
"CN(C)C[C@H]1CC[C@H](COc2cc(Nc3ccnc(-c4cnn(S(=O)(=O)C5CC5)c4)n3)ncc2C#Cc2cnn(CCF)c2)CC1 [Example 61, 2-(1-(Cyclopropylsulfonyl)-1H-pyrazol-4-yl)-N-(4-(((1r,4r)-4-((dimethylamino)methyl)cyclohexyl)methoxy)-5-((1-(2-fluoroethyl)-1H-pyrazol-4-yl)ethynyl)pyridin-2-yl)pyrimidin-4-amine]",,,,,,,,,,,,,,,,0.5 nM,4.2 nM,3.1 nM,0.5 nM,0.1 nM
"CC1(C#Cc2cnc(Nc3ccnc(-c4cnn(S(=O)(=O)C5CC5)c4)n3)cc2N2CCC(C)(CO)CC2)CCOCC1 [Example 183, (1-(2-((2-(1-(Cyclopropylsulfonyl)-1H-pyrazol-4-yl)pyrimidin-4-yl)amino)-5-((4-methyltetrahydro-2H-pyran-4-yl)ethynyl)pyridin-4-yl)-4-methylpiperidin-4-yl)methanol]",11.7 nM,43.9 nM,146 nM,> 10000 nM,26.9 nM,400 nM,2 nM,1.9 nM,0.9 nM,4.1 nM,,,,,,,,,,
"CC1(CO)CCN(c2cc(Nc3ccnc(-c4cnn(S(=O)(=O)C5CC5)c4)n3)ncc2C#Cc2ccccc2F)CC1 [Example 257, (1-(2-((2-(1-(Cyclopropylsulfonyl)-1H-pyrazol-4-yl)pyrimidin-4-yl)amino)-5-((2-fluorophenyl)ethynyl)pyridin-4-yl)-4-methylpiperidin-4-yl)methanol]",,10.7 nM,,> 10000 nM,,143 nM,,19.4 nM,,23.1 nM,,,,,,,,,,

# Continued by falling IC50 [1, 7], values first:
"IC50 [1, 6]","IC50 [1, 7]","IC50 [2, 8]","IC50 ([2]; IC50 WT (nM), 100 μM ATP)","IC50 [3, 9]","IC50 [3, 10]","IC50 [4, 11]","IC50 [4, 12]","IC50 [5, 13]","IC50 [5, 14]","IC50 [1, 15]","IC50 [2, 16]","IC50 [3, 17]","IC50 [4, 18]","IC50 [5, 19]","IC50 [1, 20]","IC50 [2, 21]","IC50 [3, 22]","IC50 [4, 23]","IC50 [5, 24]",SMILES
,6.9 nM,,> 10000 nM,,45.7 nM,,2.8 nM,,1.8 nM,,,,,,,,,,,"Cn1cc(C#Cc2cnc(Nc3ccnc(-c4cnn(S(=O)(=O)C5CC5)c4)n3)cc2N2CCC(NCCC(F)(F)F)CC2)cn1 [Example 127, 2-(1-(Cyclopropylsulfonyl)-1H-pyrazol-4-yl)-N-(5-((1-methyl-1H-pyrazol-4-yl)ethynyl)-4-(4-((3,3,3-trifluoropropyl)amino)piperidin-1-yl)pyridin-2-yl)pyrimidin-4-amine]"
,2.1 nM,,> 10000 nM,,59.8 nM,,0.4 nM,,0.5 nM,1.5 nM,16.9 nM,3.5 nM,0.3 nM,0.2 nM,,,,,,"C[C@]1(O)CCCN(c2cc(Nc3ccnc(-c4cnn(S(=O)(=O)C5CC5)c4)n3)ncc2C#Cc2cnn(CCF)c2)C1 [Example 447, (S)-1-(2-((2-(1-(Cyclopropylsulfonyl)-1H-pyrazol-4-yl)pyrimidin-4-yl)amino)-5-((1-(2-fluoroethyl)-1H-pyrazol-4-yl)ethynyl)pyridin-4-yl)-3-methylpiperidin-3-ol]"
,2 nM,,1200 nM,,6.4 nM,,0.4 nM,,0.4 nM,1.9 nM,3.1 nM,2.4 nM,0.9 nM,0.3 nM,,,,,,"COC1(O)CCN(c2cc(Nc3ccnc(-c4cnn(S(=O)(=O)C5CC5)c4)n3)ncc2C#Cc2ccc(CN3CCN(C)CC3)cc2)CC1 [Example 369, 1-(2-((2-(1-(Cyclopropylsulfonyl)-1H-pyrazol-4-yl)pyrimidin-4-yl)amino)-5-((4-((4-methylpiperazin-1-yl)methyl)phenyl)ethynyl)pyridin-4-yl)-4-methoxypiperidin-4-ol]"
,0.9 nM,,1260 nM,,7.2 nM,,1.8 nM,,2.9 nM,,,,,,2.1 nM,14.3 nM,2.8 nM,1.8 nM,1.1 nM,"CC1(CO)CCN(c2cc(Nc3ccnc(-c4cnn(S(=O)(=O)C5CC5)c4)n3)ncc2C#Cc2cnn(CC(F)F)c2)CC1 [Example 49, (1-(2-((2-(1-(Cyclopropylsulfonyl)-1H-pyrazol-4-yl)pyrimidin-4-yl)amino)-5-((1-(2,2-difluoroethyl)-1H-pyrazol-4-yl)ethynyl)pyridin-4-yl)-4-methylpiperidin-4-yl)methanol]"
,0.5 nM,,1630 nM,,8.6 nM,,0.2 nM,,0.2 nM,0.3 nM,5.1 nM,0.8 nM,0.2 nM,0.1 nM,,,,,,"CC1(CO)CCN(c2cc(Nc3ccnc(-c4cnn(S(=O)(=O)C5CC5)c4)n3)ncc2C#CC2(O)COC2)CC1 [Example 354, 3-((6-((2-(1-(Cyclopropylsulfonyl)-1H-pyrazol-4-yl)pyrimidin-4-yl)amino)-4-(4-(hydroxymethyl)-4-methylpiperidin-1-yl)pyridin-3-yl)ethynyl)oxetan-3-ol]"
,0.4 nM,,43.3 nM,,0.7 nM,,0.4 nM,,0.2 nM,,,,,,0.2 nM,0.4 nM,0.2 nM,0.2 nM,0.1 nM,"CN1CCC(n2cc(C#Cc3cnc(Nc4ccnc(-c5cnn(S(=O)(=O)C6CC6)c5)n4)cc3N3CCC(C)(CO)CC3)cn2)CC1 [Example 147, (1-(2-((2-(1-(Cyclopropylsulfonyl)-1H-pyrazol-4-yl)pyrimidin-4-yl)amino)-5-((1-(1-methylpiperidin-4-yl)-1H-pyrazol-4-yl)ethynyl)pyridin-4-yl)-4-methylpiperidin-4-yl)methanol]"
0.2 nM,0.2 nM,0.6 nM,351 nM,0.3 nM,1.6 nM,0.1 nM,0.1 nM,0.1 nM,0.1 nM,,,,,,,,,,,"CN(C)CCC1CCN(c2cc(Nc3ccnc(-c4cnn(S(=O)(=O)C5CC5)c4)n3)ncc2C#Cc2cnn(C)c2)CC1 [Example 294, 2-(1-(Cyclopropylsulfonyl)-1H-pyrazol-4-yl)-N-(4-(4-(2-(dimethylamino)ethyl)piperidin-1-yl)-5-((1-methyl-1H-pyrazol-4-yl)ethynyl)pyridin-2-yl)pyrimidin-4-amine formate]"
